From patent US20070082818A1, “Agrochemical compositions” (priority 2003, published 2007)
Structures can show the parent of a compound that is named as a salt.

What was measured:
[1] = system: eight representative weed species; assay: Bioperformance enhancement of paraquat by amine/amide adjuvants, moving track sprayer; type: in vivo; conditions: paraquat dichloride spray at 10, 20 and 40 g/ha paraquat ion, 200 l/ha; adjuvant 0.5% by weight of spray volume (aminoethylpiperazine 0.625%); 7 days after treatment; mean over all species and combined rates; 0% no herbicidal effect, 100% complete kill
Experimental: The bioperformance enhancement of paraquat in the presence of amines or amides of the present invention was evaluated. An aqueous formulation of paraquat dichloride containing 0.5% by weight of the quinuclidine (based on the weight of the amine salt), N-(aminopropyl) morphiline (based on the weight of the parent amine) or 1-(2-hydroxethyl-2-imidazolidinone) (based on the weight of the amide), all based on total spray volume was applied using a moving track sprayer to eight representative weed species at 10, 20 and 40 g/ha (based on paraquat ion). The spray volume was equivalent to 200 l/ha. For aminoethylpiperazine the formulation contained 0.625% by weight of the amine (based on the parent amine).
The results are compared with an equivalent formulation containing only paraquat chloride.

[2] = type: physicochemical
Excerpt: It is to be understood that the term physical incompatibility in relation to adjuvants used in bipyridyl compositions indicates either gross separation of one or more components of the composition which may or may not be accompanied by a significant change in formulation rheology or bulk homogeneity. It is not necessarily essential that the composition is fully homogeneous in a strict physical sense provided that the composition is substantially homogeneous in the bulk. Thus a slight separation of a second phase may be acceptable provided that the separated phase remains fully dispersed in the bulk. […] This is obviously undesirable for a number of reasons. The term physical compatibility indicates the reverse of physical incompatibility as defined above.

[3] = system: drilled broad leaved & grass weeds; assay: Field trials of 200 g/l paraquat compositions applied as foliar spray; type: in vivo; conditions: 39% and 51% of the conventional adjuvant system substituted
Experimental: Field Trials were conducted at 8 locations where the target plants were a range of drilled broad leaved & grass weeds. The 200 g/l paraquat compositions were applied as a foliar spray at application rates of 75, 150 & 300 g/ha paraquat ion, and at an application volume of 200 l/ha at a weed growth stage when the grasses were tillering & the broadleaved weeds were branching.

[4] = Physical compatibility of formulations by microscopic examination; type: physicochemical; conditions: corresponding formulations with about 120 g/l magnesium sulphate heptahydrate

Question: For `C1CN2CCC1CC2` [Quinuclidine as hydrochloride salt, Quinuclidine], which “Mean Activity (%)” value [1] is on record?
Answer: Its value is 68%.

Question: With `CCCCCCCCOC(=O)CC(C(=O)OCCCCCCCC)S(=O)(=O)O.[Na]` (centres unmarked) [sodium dioctyl sulfosuccinate, reference compound] as the compound, how does the “Adjuvant level at which physical separation / two phases were observed” value ([2]; about 120 g/l paraquat ion, about 80 g/l diquat ion, alginate, about 120 g/l magnesium sulphate heptahydrate) read?
Answer: The value was “below 10 g/l”.

Question: Which “Adjuvant loading compatible with compositions of WO 02/076212” value ([2]; actual amine) does the source give for aminoethylpiperazine [AEP] here?
Answer: Its value is at least 40 g/L.

Question: And the “Effect on biological performance of substituting conventional adjuvant system by AEP” value [3]?
Answer: Its value is “no deleterious effect”.

Question: What about the “Physical compatibility when conventional surfactants were replaced by AEP” value [4] of the same compound?
Answer: Its value is “significant improvement”.

Question: For `NCCCN1CCOCC1` [N-(Aminopropyl) morphiline], which “Mean Activity (%)” value [1] is on record?
Answer: Its value is 65%.

Question: With `NCCN1CCNCC1` [Aminoethylpiperazine] as the compound, how does the “Mean Activity (%)” value [1] read?
Answer: Its value is 72%.

Question: Which “Mean Activity (%)” value [1] does the source give for `O=C1NCCN1CCO` [1-(2-hydroxethyl-2-imidazolidinone)] here?
Answer: Its value is 66%.
